US20030138508A1 (priority 2001, published 2003)

How the values were obtained:
Male ICR mice [1] = settings: mouse, in vivo, iv, 0.7 mg/kg
[2] = assay type: physicochemical
Male ICR mice [3] = settings: mouse, in vivo, iv
Male ICR mice [4] = settings: mouse, in vivo, iv; remark: listed apart in the source

With `CCCCCc1cc(O)c2c(c1)OC(C)(C)[C@@H]1CCC(C)=C[C@@H]21` [THC, Δ^9-Tetrahydrocannabinol] the TI (Male ICR mice [1]) was 47, the recovery from aerosol [2] was about 87.5% and the inactive dose (Male ICR mice [3]) was 0.7 mg/kg. The “LD50 [95% CL's]” value (Male ICR mice [4]) was 75.4 [66.5-85.5] mg/kg.
